Data from patent US20060252807A1, “Novel ortho-terphenyl inhibitors of p38 kinase and methods of treating inflammatory disorders” (Kalypsys, Inc., priority 2005, published 2006).

Target: T1, active p38 alpha enzyme (Upstate Biotechnology) (Homo sapiens, UniProt Q16539)
T1 construct: purchased Upstate Biotechnology
Experiment: p38α biochemical assay (ATP turnover, luminescent detection, Cambrex PKlight)
Details: p38α biochemical assay, Table 1 Biological Activity
Method in brief: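 Active p38α phosphorylates MapkapK2 whole protein with 1.4 uM final ATP, 2 h at 30C, in Tris/MOPS buffer with MgCl2, CaCl2, EGTA, EDTA, glycerol, β-mercaptoethanol and 1 mg/ml BSA. Compounds pin-delivered from DMSO; total ATP turnover read by luminescence after PKlight addition.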

T1 sequence (Q16539 whole entry): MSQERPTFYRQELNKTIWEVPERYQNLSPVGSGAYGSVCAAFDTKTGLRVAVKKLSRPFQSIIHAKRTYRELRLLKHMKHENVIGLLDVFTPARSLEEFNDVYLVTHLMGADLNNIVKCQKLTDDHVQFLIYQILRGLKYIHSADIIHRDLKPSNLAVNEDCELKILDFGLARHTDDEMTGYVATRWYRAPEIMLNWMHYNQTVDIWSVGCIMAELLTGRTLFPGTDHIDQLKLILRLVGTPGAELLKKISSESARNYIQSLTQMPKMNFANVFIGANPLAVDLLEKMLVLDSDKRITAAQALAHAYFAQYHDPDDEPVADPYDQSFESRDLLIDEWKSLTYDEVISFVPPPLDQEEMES

SMILES	IC50 [µM]
CC(C)NC(=O)c1csc(-c2oc(CN3CCN(C(=O)c4cc5cc(Cl)ccc5o4)CC3)nc2-c2ccc(F)cc2)n1 [Example 501]	> 1
CCOc1ccccc1C(=O)NCc1nc(-c2ccc(F)cc2)c(-c2nc(C(=O)NC(C)C)cs2)o1 [Example 179]	> 1
CC(C)NC(=O)c1csc(-c2oc(CNC(=O)Cc3ccccc3O)nc2-c2ccc(F)cc2)n1 [Example 143]	≤ 1
CC(C)NC(=O)c1csc(-c2oc(CNC(=O)c3ccc4c(c3)OCO4)nc2-c2ccc(F)cc2)n1 [Example 177]	> 1
CC(=O)NC(Cc1ccc(O)cc1)C(=O)NCc1onc(-c2ccc(F)cc2)c1-c1nc(C(=O)NC(C)C)cs1 (centres unmarked) [Example 780]	> 1
CC(C)NC(=O)c1csc(-c2c(-c3ccc(F)cc3)noc2CNC(=O)/C=C/c2ccc(Cl)cc2)n1 [Example 705]	> 1
CC(C)NC(=O)c1csc(-c2oc(CN3CCN(C(=O)c4cccc(Cl)c4Cl)CC3)nc2-c2ccc(F)cc2)n1 [Example 488]	> 1
CC(C)NC(=O)c1csc(-c2c(-c3ccc(F)cc3)noc2CNC(=O)c2cc(O)c(O)c(O)c2)n1 [Example 665]	> 1
CC(C)NC(=O)c1csc(-c2oc(CNC(=O)c3ccc(Br)cc3)nc2-c2ccc(F)cc2)n1 [Example 269]	> 1
Cc1onc(-c2ccc(F)cc2Cl)c1-c1ccn(C(=O)NC(C)C)n1 [Example 21, 3-|3-(2-Chloro-4-fluoro-phenyl)-5-methyl-isoxazol-4-yl|-pyrazole-1-carboxylic acid isopropylamide]	≤ 1
CC(C)NC(=O)c1csc(-c2c(-c3ccc(F)cc3)noc2CNC(=O)c2ncc[nH]2)n1 [Example 581]	> 1
COc1ccc(C(=O)NCc2nc(-c3ccc(F)cc3)c(-c3nc(C(=O)NC(C)C)cs3)o2)cc1O [Example 189]	> 1
CC(C)NC(=O)c1csc(-c2c(-c3ccc(F)cc3)noc2CNC(=O)c2c(F)c(F)c(F)c(F)c2F)n1 [Example 757]	> 1
CC(C)NC(=O)c1csc(-c2oc(CNC(=O)C(Cl)(Cl)Cl)nc2-c2ccc(F)cc2)n1 [Example 165]	> 1
CC(C)NC(=O)c1csc(-c2oc(CN3CCN(C(=O)Cc4ccc(C(F)(F)F)cc4)CC3)nc2-c2ccc(F)cc2)n1 [Example 516]	≤ 1
CC(C)NC(=O)c1csc(-c2c(-c3ccc(F)cc3)noc2CNC(=O)c2ccccc2Oc2ccccc2)n1 [Example 764]	> 1
Cc1ccccc1C(=O)N1CCN(Cc2nc(-c3ccc(F)cc3)c(-c3nc(C(=O)NC(C)C)cs3)o2)CC1 [Example 359]	> 1
Cc1nc(-c2ccc(F)cc2)c(-c2nc(C(=O)NCC3CC3)cs2)s1 [Example 51, 4′-(4-Fluoro-phenyl)-2′-methyl-|2,5′|bithiazolyl-4-carboxylic acid cyclopropylmethyl-amide]	≤ 1
CC(C)NC(=O)c1csc(-c2oc(CN3CCN(C(=O)C(C)c4ccc(O)cc4)CC3)nc2-c2ccc(F)cc2)n1 (centres unmarked) [Example 420]	> 1
CC(C)NC(=O)c1csc(-c2c(-c3ccc(F)cc3)ncn2C2CCN(Cc3ccccc3)CC2)n1 [Example 88, 2-|3-(1-Benzyl-piperidin-4-yl)-5-(4-fluoro-phenyl)-3H-imidazol-4-yl|-thiazole-4-carboxylic acid isopropylamide]	> 1
Cc1ccc(C)c(C(=O)N2CCN(Cc3nc(-c4ccc(F)cc4)c(-c4nc(C(=O)NC(C)C)cs4)o3)CC2)c1 [Example 374]	> 1
CC(C)NC(=O)c1csc(-c2oc(CNC(=O)CCc3ccccc3O)nc2-c2ccc(F)cc2)n1 [Example 181]	≤ 1
CC(=O)c1cccc(C(=O)NCc2onc(-c3ccc(F)cc3)c2-c2nc(C(=O)NC(C)C)cs2)c1 [Example 644]	> 1
CC(C)NC(=O)c1csc(-c2oc(CNC(=O)c3ccc(C(C)(C)C)cc3)nc2-c2ccc(F)cc2)n1 [Example 209]	> 1
CC(C)NC(=O)c1csc(-c2oc(CN3CCN(C(=O)c4ccc(C(F)(F)F)cc4[N+](=O)[O-])CC3)nc2-c2ccc(F)cc2)n1 [Example 556]	> 1
Cc1ccc(C(=O)NCc2nc(-c3ccc(F)cc3)c(-c3nc(C(=O)NC(C)C)cs3)o2)cc1C [Example 139]	> 1

Same assay, conditions: p38α kinase; Table 1 Biological Activity

SMILES	IC50 [µM]
Cc1nc(-c2ccc(F)cc2)c(-c2nc(C(=O)N(CCO)CCO)cs2)s1 [Example 1855]	> 1
CC(C)NC(=O)c1csc(-c2c(-c3ccc(F)cc3)n[nH]c2C2CCN(C(=O)c3ccncc3Cl)CC2)n1 [Example 870]	≤ 1
CCCC(C)NC(=O)c1csc(-c2c(-c3ccc(F)cc3)n[nH]c2C2CCNCC2)n1 (centres unmarked) [Example 2045]	≤ 1
CC(C)NC(=O)c1csc(-c2c(-c3ccc(F)cc3)noc2CNCCCN2CCOCC2)n1 [Example 1468]	> 1
Cc1nc(-c2ccc(F)cc2)c(-c2nc(C(=O)N(C)CCc3ccccn3)cs2)s1 [Example 1878]	> 1
CC(C)NC(=O)c1csc(-c2oc(CNCc3ccccn3)nc2-c2ccc(F)cc2)n1 [Example 1086]	≤ 1
CC(C)NC(=O)c1csc(-c2oc(CNC3CCc4ccccc43)nc2-c2ccc(F)cc2)n1 (centres unmarked) [Example 1112]	> 1
CC(=O)c1cccc(NC(=O)c2csc(-c3sc(C)nc3-c3ccc(F)cc3)n2)c1 [Example 1983]	≤ 1
Cc1cccc(NCc2nc(-c3ccc(F)cc3)c(-c3nc(C(=O)NC(C)C)cs3)o2)n1 [Example 1312]	> 1
COc1cc(CNC(=O)c2csc(-c3c(-c4ccc(F)cc4)n[nH]c3C3CCNCC3)n2)cc(OC)c1 [Example 2138]	> 1
COc1ccc(NCc2nc(-c3ccc(F)cc3)c(-c3nc(C(=O)NC(C)C)cs3)o2)cc1 [Example 1325]	> 1
CC(C)NC(=O)c1csc(-c2c(-c3ccc(F)cc3)n[nH]c2C2CCN(C(=O)CCc3nc4ccccc4[nH]3)CC2)n1 [Example 964]	≤ 1
CC1=NN(c2ccc(C(=O)N3CCC(c4[nH]nc(-c5ccc(F)cc5)c4-c4nc(C(=O)NC(C)C)cs4)CC3)cc2)C(=O)C1 [Example 1015]	> 1
COc1ccc(CNCc2onc(-c3ccc(F)cc3)c2-c2nc(C(=O)NC(C)C)cs2)cc1O [Example 1500]	> 1
CC(C)NC(=O)c1csc(-c2oc(CN3CCSCC3)nc2-c2ccc(F)cc2)n1 [Example 1204]	> 1
Cc1ccc(C)c(CNC(=O)c2csc(-c3c(-c4ccc(F)cc4)n[nH]c3C3CCNCC3)n2)c1 [Example 2091]	> 1
COc1cc(OC)c(C(=O)N2CCC(c3[nH]nc(-c4ccc(F)cc4)c3-c3nc(C(=O)NC(C)C)cs3)CC2)cc1OC [Example 998]	> 1
Cc1ccc(NC(=O)c2csc(-c3sc(C)nc3-c3ccc(F)cc3)n2)cc1 [Example 1957]	> 1
CC(C)NC(=O)c1csc(-c2c(-c3ccc(F)cc3)n[nH]c2C2CCN(C(=O)COc3ccccc3C=O)CC2)n1 [Example 926]	> 1
CC(C)NC(=O)c1csc(-c2c(-c3ccc(F)cc3)noc2CN2CCCC(C(N)=O)C2)n1 (centres unmarked) [Example 1547]	> 1
CCN(C(=O)c1csc(-c2sc(C)nc2-c2ccc(F)cc2)n1)C(Cc1ccccc1)c1ccco1 (centres unmarked) [Example 1942]	> 1

SMILES	IC50 [µM]
Cc1cccc(N2CCN(C(=O)c3csc(-c4sc(C)nc4-c4ccc(F)cc4)n3)CC2C)c1 (centres unmarked) [Example 1915]	≤ 1
Cc1ccc(NCc2nc(-c3ccc(F)cc3)c(-c3nc(C(=O)NC(C)C)cs3)o2)cc1C [Example 1318]	> 1
CCNCc1nc(-c2ccc(F)cc2)c(-c2nc(C(=O)NC(C)C)cs2)o1 [Example 1050]	> 1
O=C(NC1CCN(Cc2ccccc2)C1)c1csc(-c2c(-c3ccc(F)cc3)n[nH]c2C2CCNC2)n1 (centres unmarked) [Example 2147]	> 1
CC(=O)c1cccc(C(=O)N2CCC(c3[nH]nc(-c4ccc(F)cc4)c3-c3nc(C(=O)NC(C)C)cs3)CC2)c1 [Example 883]	> 1
CC(=O)Nc1ccc(NCc2onc(-c3ccc(F)cc3)c2-c2nc(C(=O)NC(C)C)cs2)cn1 [Example 1676]	> 1
COc1ccccc1CNC(=O)c1csc(-c2sc(C)nc2-c2ccc(F)cc2)n1 [Example 1779]	≤ 1
CC(C)CCNC(=O)c1csc(-c2c(-c3ccc(F)cc3)n[nH]c2C2CCNCC2)n1 [Example 2048]	> 1
COc1ccc(NC(=O)c2csc(-c3sc(C)nc3-c3ccc(F)cc3)n2)c(C)c1 [Example 1988]	≤ 1
CC(C)NCc1nc(-c2ccc(F)cc2)c(-c2nc(C(=O)NC(C)C)cs2)o1 [Example 1054]	> 1
COc1cc(CNCc2nc(-c3ccc(F)cc3)c(-c3nc(C(=O)NC(C)C)cs3)o2)cc(OC)c1 [Example 1161]	> 1
CC(C)NC(=O)c1csc(-c2c(-c3ccc(F)cc3)n[nH]c2C2CCN(C(=O)c3ccccc3Oc3ccccc3)CC2)n1 [Example 1003]	> 1
CC(=O)Nc1ccc(NC(=O)c2csc(-c3sc(C)nc3-c3ccc(F)cc3)n2)cc1 [Example 2000]	≤ 1
CCN(Cc1nc(-c2ccc(F)cc2)c(-c2nc(C(=O)NC(C)C)cs2)o1)C(Cc1ccccc1)c1ccco1 (centres unmarked) [Example 1291]	> 1
CC(C)NC(=O)c1csc(-c2oc(CNc3cccc(C(F)(F)F)c3)nc2-c2ccc(F)cc2)n1 [Example 1356]	> 1
Cc1nc(-c2ccc(F)cc2)c(-c2nc(C(=O)O)cs2)s1 [Example 1703]	> 1
O=C(NCc1cccs1)c1csc(-c2c(-c3ccc(F)cc3)n[nH]c2C2CCNCC2)n1 [Example 2065]	> 1
CC(=O)Oc1cccc(C(=O)N2CCC(c3[nH]nc(-c4ccc(F)cc4)c3-c3nc(C(=O)NC(C)C)cs3)CC2)c1 [Example 929]	> 1
Cc1nc(-c2ccc(F)cc2)c(-c2nc(C(=O)Nc3ccccc3C(C)C)cs2)s1 [Example 1982]	> 1
CC(C)NC(=O)c1csc(-c2oc(CNCc3ccccc3Cl)nc2-c2ccc(F)cc2)n1 [Example 1131]	> 1
CC(C)NC(=O)c1csc(-c2oc(CNc3ccc(C(F)(F)F)cc3)nc2-c2ccc(F)cc2)n1 [Example 1355]	> 1
